Earlier results, collected in patent publication US8114906B2, “Essential fatty acids in the treatment and/or inhibition of depression in patients with coronary heart or artery disease” (Abbott Products GmbH, priority 2004, dated 2012).

Key:
[1] = tested on: depression in post-myocardial patients; settings: one study
[2] = tested on: treatment resistant depression; settings: EPA added to treatment

Row | Compound | effects in post-myocardial patients with concomitant depression [1] | symptoms of treatment resistant depression [2]
1 | CN[C@H]1CC[C@@H](c2ccc(Cl)c(Cl)c2)c2ccccc21 [sertraline] | beneficial effects | –
2 | CC/C=C\C/C=C\C/C=C\C/C=C\C/C=C\CCCC(=O)OCC [EPA, eicosapentanoic acid ethyl ester] | – | symptoms remission
